Reference: patent US20070196277A1, “Compositions and Methods for the Direct Therapy of Tumors” (priority 2006, published 2007)
Where two headings read alike, the source gives them in different places.

Key:
marrow cells = settings: in vitro human bone marrow assay; cited from earlier work
[1] = cited from earlier work
[2] = biological target: T1, dihydrouracil dehydrogenase (Homo sapiens, UniProt Q12882); settings: cited from earlier work
T1 sequence (Q12882 4-1025): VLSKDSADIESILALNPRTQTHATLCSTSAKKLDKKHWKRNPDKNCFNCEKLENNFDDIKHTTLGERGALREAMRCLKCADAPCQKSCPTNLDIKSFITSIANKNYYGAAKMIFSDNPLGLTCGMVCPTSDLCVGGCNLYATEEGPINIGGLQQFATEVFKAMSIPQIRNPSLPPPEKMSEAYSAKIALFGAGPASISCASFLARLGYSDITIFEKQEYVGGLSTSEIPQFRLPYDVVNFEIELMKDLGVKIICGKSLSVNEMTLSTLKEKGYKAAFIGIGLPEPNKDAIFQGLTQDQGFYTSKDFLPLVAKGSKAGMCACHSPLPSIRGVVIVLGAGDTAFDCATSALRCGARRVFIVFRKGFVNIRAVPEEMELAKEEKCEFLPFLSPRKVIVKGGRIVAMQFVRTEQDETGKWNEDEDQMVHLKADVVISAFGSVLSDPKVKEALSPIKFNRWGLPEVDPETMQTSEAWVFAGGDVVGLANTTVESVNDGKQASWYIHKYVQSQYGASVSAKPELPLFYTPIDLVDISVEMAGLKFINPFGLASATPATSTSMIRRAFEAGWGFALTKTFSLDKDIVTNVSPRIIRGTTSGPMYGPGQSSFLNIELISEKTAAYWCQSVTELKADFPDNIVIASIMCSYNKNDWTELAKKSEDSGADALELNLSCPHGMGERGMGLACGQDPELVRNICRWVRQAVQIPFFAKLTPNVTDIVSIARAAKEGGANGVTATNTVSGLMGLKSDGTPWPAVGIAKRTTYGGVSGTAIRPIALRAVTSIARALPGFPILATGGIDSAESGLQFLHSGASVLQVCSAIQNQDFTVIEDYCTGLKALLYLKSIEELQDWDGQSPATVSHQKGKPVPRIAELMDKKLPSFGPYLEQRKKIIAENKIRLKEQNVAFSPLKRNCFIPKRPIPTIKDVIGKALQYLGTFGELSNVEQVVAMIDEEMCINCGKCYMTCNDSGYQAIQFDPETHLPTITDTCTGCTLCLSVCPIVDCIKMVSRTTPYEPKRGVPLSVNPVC

[3] = powder, light-protected container, room temperature; cited from earlier work
cat brain = test system: cat brain
Excerpt: This conversion is based upon comparison of the cat brain (approximately 20 gms) and human brain (approximately 1350 gms).

rat brain = test system: rat brain
Excerpt: This conversion is based upon comparison of the mass of the rat brain (approximately 2.5 gms) and human brain (approximately 1350 gms).

[4] = cited from earlier work; remark: listed apart in the source
[5] = cited from earlier work; remark: listed apart in the source
[6] = test system: Walker Carcinosarcoma 256 tumors; settings: cited from earlier work
[7] = cited from earlier work; remark: listed apart in the source
[8] = test system: intracerebral T9 gliosarcoma tumors; settings: same dose delivered systemically; cited from earlier work

With `O=c1[nH]c(=O)n([C@H]2C[C@H](O)[C@@H](CO)O2)cc1I` [IdUrd, 5-iodo-2′-deoxyuridine] as the compound, how does the “cytotoxicity to marrow cells relative to IUra” value (marrow cells) read?
Its value is “at least 100 times”.

For `Oc1ncc(I)c(O)n1` [IUra, 2,4-dihydroxy-5-iodopyrimidine], which “apparent Michaelis constant of disappearance from plasma” value ([1]; after the infusion, nonlinear) is on record?
The value was 30 mumol/L.

And the “maximum plasma IUra concentration” value ([1]; following infusion of 500 to 1200 mg/m^2 of IdUrd)?
The value was 100 mumol/L.

And the “plasma IUra relative to simultaneous IdUrd plasma concentration” value ([1]; following infusion of IdUrd)?
Its value is “about 10 times”.

And the “inhibition of dihydrouracil dehydrogenase” value [2]?
Its value is “competitive inhibitor”.

And the storage stability [3]?
Its storage stability is 1 year.

Which results are given for `CCO` [ethanol]?
maximally tolerated volume with no apparent neurologic deficit (cat brain; cat brain, unpublished data): 0.4 ml; maximally tolerated volume extrapolated to normal human brain (cat brain; from cat, by brain mass 20 gms vs 1350 gms): 27 mL; maximally tolerated volume extrapolated to normal human brain (rat brain; from rat, by brain mass 2.5 gms vs 1350 gms): 10.8 mL; maximally tolerated volume with no apparent neurologic deficit (rat brain; rat brain): 20 μl

For `CC(C)NC(C)Cc1ccc(I)cc1` (stereo not drawn) [iofetamine, N-isopropyl-p-iodoamphetamine], which “plasma elimination half-time, first phase” value ([4]; biphasic elimination) is on record?
Its value is 1.6 ± 1.2 h.

And the “plasma elimination half-time, second phase” value ([4]; biphasic elimination)?
The value was 10.9 ± 6.1 h.

What about the blood-brain barrier passage ([4]; in vivo) of the same compound?
Its blood-brain barrier passage is “crosses the intact blood-brain barrier”.

For `O=NN(CCCl)C(=O)NCCCl` [BCNU, 1,3-bis(2-chloroethyl)-1-nitrosourea], which “half life in serum” value [5] is on record?
Its value is “about 15 minutes”.

And the antitumor efficacy ([6]; aqueous vehicle, injected intratumorally)?
Its antitumor efficacy is “had antitumor efficacy, but far less than the same BCNU dose formulated in ethanol”.

What about the therapeutic benefit ([6]; systemic administration, same dose (25 mg/kg)) of the same compound?
The therapeutic benefit was “no therapeutic benefit”.

And the blood-brain barrier passage ([7]; in vivo)?
Its blood-brain barrier passage is “crosses the blood-brain barrier quite effectively”.

What about the “total dose excreted as respiratory CO2” value ([7]; in vivo) of the same compound?
Its value is “about 10%”.

And the “intact BCNU in serum” value ([7]; intravenous, after 60 minutes)?
The value was “little intact BCNU”.

And the cures [8]?
The cures was “no cures”.

What about the “increase in life span” value [8] of the same compound?
The value was “no increase in life span”.
